Read-outs that look alike come from different tables or passages of the source.
Tests used:
[1] = test system: E. coli Mach1-T1; test: Minimum inhibitory concentration (MIC) of 3-HP, microaerobic, 96 well-plate, MOPS minimal media; format: cell-based, Escherichia coli; conditions: Mach1-T1 with feedback resistant aroH mutant plasmid, MOPS minimal media
Description: Overnight cultures of strains were grown in 5 ml LB (with antibiotic where appropriate). A 1 v/v % was used to inoculate a 15 ml conical tube filled to the top with MOPS minimal media and capped. After the cells reached mid exponential phase, the culture was diluted to an OD600 of 0.200. The cells were further diluted 1:20 and a 10 ul aliquot was used to inoculate each well (˜10^4 cells per well).
The minimum inhibitory concentration (MIC) was determined microaerobically in a 96 well-plate format. Overnight cultures of strains were grown in 5 mL LB (with antibiotic where appropriate). A 1% (v/v) inoculum was introduced into a 15 ml culture of MOPS minimal media. After the cells reached mid-exponential phase, the culture was diluted to an OD600 of 0.200. The cells were further diluted 1:20 and a 10 μL aliquot was used to inoculate each well of a 96 well plate (˜10^4 cells per well).

[2] = test system: E. coli; format: cell-based, Escherichia coli; conditions: anaerobic; strain BX_00319.0: BW25113 wild type + pK223-aroH; M9 + Amp 100 μg/mL + 1 mM IPTG
Description: (§1) For MIC evaluations, the final results are expressed in chemical agent concentrations determined by analysis of the stock solution by HPLC (i.e., see Subsection Mb).
The minimum inhibitory concentration (MIC) was determined anaerobically in a 96 well-plate format. […] Media supplements were added according to levels reported in the Supplements Table, where specified. Overnight cultures of strains were grown in triplicate in 5 mL LB (with antibiotic where appropriate). A 1% (v/v) inoculum was introduced into a 5 ml culture of M9 minimal media.

[3] = test system: E. coli; format: cell-based, Escherichia coli; conditions: aerobic
Description: as §1
The minimum inhibitory concentration (MIC) was determined aerobically in a 96 well-plate format. […] Media supplements were added according to levels reported in the Supplements Table, where specified. Overnight cultures of strains were grown in triplicate in 5 mL LB (with antibiotic where appropriate). A 1% (v/v) inoculum was introduced into a 5 ml culture of M9 minimal media.

[4] = Reactive extraction of 3-HP from fermentation broth with tertiary amine and co-solvents, single pass extraction efficiency; format: physicochemical
Description: Calcium chloride at 1 M was added as a flocculent to reach a final concentration of about 8.2 g/L. Thereafter the pH was adjusted to a pH of approximately 2.0 using sulfuric acid. Thereafter a volume of this modified fermentation broth was centrifuged at approximately 3,200 g for 5 minutes to yield a clarified broth and a pellet, which was discarded.
Portions of the clarified broth were then subjected to reactive extraction by mixing with a tertiary amine non-polar phase comprising various co-solvents.

[5] = 3-HP preparation (TCI America): behaviour of samples neutralized to pH 7.0; format: physicochemical; conditions: 3-HP from TCI America, ether extracted, neutralized with 10 M NaOH to pH 7.0
Source text: 3-HP was obtained from TCI America (Portland, Oreg.). Significant acrylic acid and 2-oxydipropionic contamination was observed via HPLC analysis. Samples were subsequently treated by diethyl ether extraction to remove acrylic acid and a portion of the 2-oxydipropionic contaminants. Samples were then neutralized with 10 M NaOH to a final pH of 7.0. […] The working stock solution was used for the selection and MIC evaluations in this example.
3-HP was obtained from TCI America (Portland, Oreg.). Significant acrylic acid and 2-oxydipropionic contamination was observed via HPLC analysis. Samples were subsequently treated by diethyl ether extraction to remove acrylic acid and a portion of the 2-oxydipropionic contaminants. Samples were then neutralized with 10 M NaOH to a final pH of 7.0. […] The working stock solution was used for the selection, growth rates and MIC evaluations in this example.

[6] = Tripentylamine with Butanol (2)
[7] = Tripentylamine with Methyl ethyl ketone (4)
[8] = Tripentylamine with Methyl tert-butyl ether (5)
[9] = Tripentylamine with p-Xylene (3)

Compound: O=C(O)CCO [3-HP, 3-hydroxypropionic acid]
- improvement in MIC of 3-HP, cells comprising the aroH mutant vs control [1]: 40%
- % Increase Over Control [2]: 33%
- % Increase Over Control ([3]; strain BX_00301.0: BW25113 wild type + pSmart-LC-Kan-folA-C1, M9 + Kan 20 μg/mL): 40%
- % Increase Over Control ([3]; strain BX_00302.0: BW25113 wild type + pSmart-LC-Kan-folA-ORF, M9 + Kan 20 μg/mL): 20%
- % Increase Over Control ([3]; strain BX_00304.0: BW25113 wild type + pSmart-LC-Kan-menA-ORF, M9 + Kan 20 μg/mL): 40%
- % Increase Over Control ([3]; strain BX_00305.0: BW25113 wild type + pSmart-LC-Kan-pheA-C1, M9 + Kan 20 μg/mL): 40%
- % Increase Over Control ([3]; strain BX_00307.0: BW25113 wild type + pSmart-LC-Kan-tyrA-C1, M9 + Kan 20 μg/mL): 40%
- % Increase Over Control ([3]; strain BX_00309.0: BW25113 wild type + pSmart-LC-Kan-cynTS, M9 + Kan 20 μg/mL): 40%
- % Increase Over Control ([3]; strain BX_00310.0: BW25113 wild type + pSmart-LC-Kan-glyA, M9 + Kan 20 μg/mL): 40%
- % Increase Over Control ([3]; strain BX_00312.0: BW25113 wild type + pSmart-LC-Kan-serA, M9 + Kan 20 μg/mL): 40%
- % Increase Over Control ([3]; strain BX_00313.0: BW25113 wild type + pSmart-LC-Kan-folD, M9 + Kan 20 μg/mL): 20%
- % Increase Over Control ([3]; strain BX_00314.0: BW25113 wild type + pSmart-LC-Kan-aroE, M9 + Kan 20 μg/mL): 40%
- % Increase Over Control ([3]; strain BX_00315.0: BW25113 wild type + pSmart-LC-Kan-aroKB C1, M9 + Kan 20 μg/mL): 40%
- % Increase Over Control ([3]; strain BX_00317.0: BW25113 wild type + pSmart-LC-Kan-ilvA operon, M9 + Kan 20 μg/mL): 40%
- % Increase Over Control ([3]; strain BX_00318.0: BW25113 wild type + pSmart-LC-Kan-cysM, M9 + Kan 20 μg/mL): 40%
- % Increase Over Control ([3]; strain BX_00319.0: BW25113 wild type + pK223-aroH, M9 + Amp 100 μg/mL + 1 mM IPTG): 50%
- % Increase Over Control ([3]; strain BX_00321.0: BW25113 wild type + pK223-ct-his-thrA, M9 + Amp 100 μg/mL + 1 mM IPTG): 75%
- % Increase Over Control ([3]; strain BX_00322.0: BW25113 wild type + pJ61-speFED, M9 + Kan 20 μg/mL): 40%
- % Increase Over Control ([3]; strain BX_00323.0: BW25113 wild type + pJ61-aroG, M9 + Kan 20 μg/mL): 40%
- % Increase Over Control ([3]; strain BX_00324.0: BW25113 wild type + pJ61-thrA, M9 + Kan 20 μg/mL): 40%
- % Increase Over Control ([3]; strain BX_00325.0: BW25113 wild type + pJ61-asd, M9 + Kan 20 μg/mL): 40%
- % Increase Over Control ([3]; strain BX_00326.0: BW25113 wild type + pJ61-ilvA, M9 + Kan 20 μg/mL): 40%
- % Increase Over Control ([3]; strain BX_00327.0: BW25113 wild type + pJ61-cysM, M9 + Kan 20 μg/mL): 40%
- % Increase Over Control ([3]; strain BX_00334.0: BW25113 wild type + pSmart-HC-Amp-cadA, M9 + Amp 100 μg/mL): 60%
- % Increase Over Control ([3]; strain BX_00335.0: BW25113 wild type + pSmart-HC-Amp-prs, M9 + Amp 100 μg/mL): 40%
- % Increase Over Control ([3]; strain BX_00336.0: BW25113 wild type + pSmart-HC-Amp-nrdAB, M9 + Amp 100 μg/mL): 40%
- % Increase Over Control ([3]; strain BX_00337.0: BW25113 wild type + pSmart-HC-Amp-nrdEF, M9 + Amp 100 μg/mL): 40%
- % Increase Over Control ([3]; strain BX_00352.0: BW25113 wild type + pSmart-LC-Kan-metC C1, M9 + Amp 100 μg/mL): 40%
- % Increase Over Control ([3]; strain BX_00353.0: BW25113 wild type + pSmart-HC-Amp-metC, M9 + Amp 100 μg/mL): 80%
- % Increase Over Control ([3]; strain BX_00354.0: BW25113 wild type + pSmart-HC-Amp-cynTS, M9 + Amp 100 μg/mL): 80%
- % Increase Over Control ([3]; strain BX_00356.0: BW25113 wild type + pSmart-HC-Amp-LysA, M9 + Amp 100 μg/mL): 20%
- % Increase Over Control ([3]; strain BX_00357.0: BW25113 wild type + pKK223-aroH*445, M9 + Amp 100 μg/mL + 1 mM IPTG): 50%
- % Increase Over Control ([3]; strain BX_00358.0: BW25113 wild type + pKK223-aroH*447, M9 + Amp 100 μg/mL + 1 mM IPTG): 75%
- % Increase Over Control ([3]; strain BX_00359.0: BW25113 wild type + pKK223-aroH*457, M9 + Amp 100 μg/mL + 1 mM IPTG): 75%
- % Increase Over Control ([3]; strain BX_00361.0: BW25113 wild type + pACYC177 (Kan only)-cynTS, M9 + Kan 20 μg/mL): 40%
- % Increase Over Control ([3]; strain BX_00362.0: BW25113 wild type + pACYC177 (Kan only)-aroH, M9 + Kan 20 μg/mL + 1 mM IPTG): 20%
- % Increase Over Control ([3]; strain BX_00363.0: BW25113 wild type + pACYC177 (kan only)-speB, M9 + Kan 20 μg/mL): 40%
- % Increase Over Control ([3]; strain BX_00364.0: BW25113 wild type + pACYC177 (Kan only)-metE (Version1) (SS090608_13), M9 + Kan 20 μg/mL + 1 mM IPTG): 40%
- % Increase Over Control ([3]; strain BX_00365.0: BW25113 wild type + pACYC177 (Kan only)-metC (Version1) (SS090608_17), M9 + Kan 20 μg/mL): 40%
- % Increase Over Control ([3]; strain BX_00368.0: BW25113 wild type + pBT-3-cynTS, M9 + Cm (20 μg/mL)): 20%
- % Increase Over Control ([3]; strain BX_00370.0: BW25113 wild type + pBT-3-speB, M9 + Cm (20 μg/mL)): 20%
- 3-HP mass extractant ([4]; Alamine 336 with Butanol (1)): 0.59 G
- 3-HP mass raffinate ([4]; Alamine 336 with Butanol (1)): 0.38 G
- % 3-HP extracted ([4]; Alamine 336 with Butanol (1)): 61%
- % 3-HP raffinate ([4]; Alamine 336 with Butanol (1)): 39%
- Total 3HP extracted ([4]; Alamine 336 with Butanol (1)): 0.59 G
- 3-HP mass raffinate [4, 6]: 0.81 G
- % 3-HP extracted [4, 6]: 58%
- % 3-HP raffinate [4, 6]: 42%
- 3-HP mass raffinate [4, 7]: 0.63 G
- % 3-HP extracted [4, 7]: 67%
- % 3-HP raffinate [4, 7]: 33%
- 3-HP mass extractant [4, 8]: 0.73 G
- % 3-HP extracted [4, 8]: 38%
- % 3-HP raffinate [4, 8]: 62%
- Total 3HP extracted [4, 8]: 0.73 G
- 3-HP mass extractant [4, 9]: 0.46 G
- % 3-HP extracted [4, 9]: 24%
- % 3-HP raffinate [4, 9]: 76%
- Total 3HP extracted [4, 9]: 0.46 G
- concentration above which considerable 3-HP polymerization was observed at neutral pH [5]: > 35 g/L
- concentration above which considerable insoluble matter was observed at neutral pH [5]: > 35 g/L

From patent US9388419B2 (The Regents of the University of Colorado, a body corporate, priority 2009, dated 2016)
